Source: ChEMBL document CHEMBL1201862, “PubChem BioAssay data set” (2004)
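Grown in 96-well plates, cells were treated for 48 hours with each compound at five concentrations. Insufficient inhibition: endpoint recorded as highest concentration tested. GI50 is the concentration that inhibits growth by half.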 Calls of active or inactive are those of the source. Cut-off read from the data, not from the text of the source: active = GI50 up to about 1.1 µM and inactive = higher.

Key:
Experiment in all cases: DTP human tumour cell line panel, 48 h
HOP-62 = tested on: HOP-62
LOX IMVI = tested on: LOX IMVI
SF-295 = tested on: SF-295
COLO 205 = tested on: COLO 205
OVCAR-4 = tested on: OVCAR-4
HCC 2998 = tested on: HCC 2998
HCT-116 = tested on: HCT-116
NCI-H23 = tested on: NCI-H23
A498 = tested on: A498
ACHN = tested on: ACHN
NCI-H460 = tested on: NCI-H460
RXF 393 = tested on: RXF 393
SN12C = tested on: SN12C
SF-268 = tested on: SF-268
M14 = tested on: M14
K562 = tested on: K562

SMILES	GI50 (HOP-62)	GI50 (LOX IMVI)	GI50 (SF-295)	GI50 (COLO 205)	GI50 (OVCAR-4)	GI50 (HCC 2998)	GI50 (HCT-116)	GI50 (NCI-H23)	GI50 (A498)	GI50 (ACHN)	GI50 (NCI-H460)	GI50 (RXF 393)	GI50 (SN12C)	GI50 (SF-268)	GI50 (M14)	GI50 (K562)
CSc1cnc2ccccc2c1Sc1c[nH]c2ccccc2c1=O	12.2 µM (inactive)	11.5 µM (inactive)	7.59 µM (inactive)	6.24 µM (inactive)	14.1 µM (inactive)	12.9 µM (inactive)	9.48 µM (inactive)	11.3 µM (inactive)	12.4 µM (inactive)	15.1 µM (inactive)	6.75 µM (inactive)	13.7 µM (inactive)	11.8 µM (inactive)	17.3 µM (inactive)	6.76 µM (inactive)	3.46 µM (inactive)
CC(=O)CC(=O)CCCC(=O)Nc1ccc(Cl)cc1C	–	> 100 µM (inactive)	> 100 µM (inactive)	> 100 µM (inactive)	> 100 µM (inactive)	> 100 µM (inactive)	> 100 µM (inactive)	> 100 µM (inactive)	> 100 µM (inactive)	> 100 µM (inactive)	> 100 µM (inactive)	–	> 100 µM (inactive)	> 100 µM (inactive)	> 100 µM (inactive)	> 100 µM (inactive)
c1ccc2cc(-c3cc4ccccc4s3)ccc2c1	> 100 µM (inactive)	> 100 µM (inactive)	> 100 µM (inactive)	> 100 µM (inactive)	> 100 µM (inactive)	> 100 µM (inactive)	> 100 µM (inactive)	> 100 µM (inactive)	> 100 µM (inactive)	> 100 µM (inactive)	> 100 µM (inactive)	–	> 100 µM (inactive)	> 100 µM (inactive)	> 100 µM (inactive)	> 100 µM (inactive)
COc1ccc(Br)c(CCCCC(=O)O)c1	> 100 µM (inactive)	> 100 µM (inactive)	> 100 µM (inactive)	> 100 µM (inactive)	> 100 µM (inactive)	> 100 µM (inactive)	> 100 µM (inactive)	> 100 µM (inactive)	> 100 µM (inactive)	> 100 µM (inactive)	> 100 µM (inactive)	> 100 µM (inactive)	> 100 µM (inactive)	–	> 100 µM (inactive)	> 100 µM (inactive)
CCn1c(O)c(C(=O)Nc2cccs2)c(=O)n(CC)c1=S	21.6 µM (inactive)	17 µM (inactive)	11.7 µM (inactive)	16.8 µM (inactive)	15.3 µM (inactive)	–	19.2 µM (inactive)	15.8 µM (inactive)	19.5 µM (inactive)	21.5 µM (inactive)	15.5 µM (inactive)	–	20 µM (inactive)	19.3 µM (inactive)	19.8 µM (inactive)	21.9 µM (inactive)
COC1/C(=C\C(C)=O)c2ccccc2N1C(C)=O (stereo unspecified)	> 100 µM (inactive)	–	> 100 µM (inactive)	> 100 µM (inactive)	> 100 µM (inactive)	> 100 µM (inactive)	> 100 µM (inactive)	> 100 µM (inactive)	> 100 µM (inactive)	> 100 µM (inactive)	> 100 µM (inactive)	> 100 µM (inactive)	> 100 µM (inactive)	–	> 100 µM (inactive)	> 100 µM (inactive)
COc1ccc(/C(Cl)=C/c2ccc(Cl)c(Cl)c2)cc1	27.5 µM (inactive)	–	23.7 µM (inactive)	22.1 µM (inactive)	41.5 µM (inactive)	19.8 µM (inactive)	22.7 µM (inactive)	19 µM (inactive)	24.9 µM (inactive)	24.8 µM (inactive)	–	15.2 µM (inactive)	29.4 µM (inactive)	35.5 µM (inactive)	33.2 µM (inactive)	35.1 µM (inactive)
CCOC(=O)C/C(=N\c1cc(C)on1)N(CC)CC.[O-][Cl+3]([O-])([O-])O	> 100 µM (inactive)	–	–	> 100 µM (inactive)	–	–	> 100 µM (inactive)	> 100 µM (inactive)	> 100 µM (inactive)	> 100 µM (inactive)	> 100 µM (inactive)	–	> 100 µM (inactive)	> 100 µM (inactive)	> 100 µM (inactive)	> 100 µM (inactive)
O=[N+]([O-])c1cc2c(cc1O)[nH]c1cccc([N+](=O)[O-])c12	> 100 µM (inactive)	> 100 µM (inactive)	> 100 µM (inactive)	> 100 µM (inactive)	> 100 µM (inactive)	> 100 µM (inactive)	> 100 µM (inactive)	> 100 µM (inactive)	–	> 100 µM (inactive)	> 100 µM (inactive)	–	> 100 µM (inactive)	> 100 µM (inactive)	> 100 µM (inactive)	> 100 µM (inactive)
COC(=O)Cc1cc(=O)[nH]c2c1C(=O)CCC2	–	–	> 100 µM (inactive)	–	–	> 100 µM (inactive)	–	> 100 µM (inactive)	–	> 100 µM (inactive)	> 100 µM (inactive)	> 100 µM (inactive)	> 100 µM (inactive)	> 100 µM (inactive)	> 100 µM (inactive)	> 100 µM (inactive)
CCC(=O)c1cn(C)c(=O)c2ccccc12	> 100 µM (inactive)	> 100 µM (inactive)	> 100 µM (inactive)	> 100 µM (inactive)	> 100 µM (inactive)	> 100 µM (inactive)	–	> 100 µM (inactive)	–	> 100 µM (inactive)	> 100 µM (inactive)	> 100 µM (inactive)	> 100 µM (inactive)	> 100 µM (inactive)	> 100 µM (inactive)	> 100 µM (inactive)
c1ccc2c(CNCCCN3CCN(CCCNCc4cccc5ccccc45)CC3)cccc2c1	19.8 µM (inactive)	1.35 µM (inactive)	1.77 µM (inactive)	2.06 µM (inactive)	2.21 µM (inactive)	–	1.51 µM (inactive)	11.4 µM (inactive)	10.9 µM (inactive)	2.75 µM (inactive)	1.41 µM (inactive)	1.08 µM (active)	3.68 µM (inactive)	2.37 µM (inactive)	1.18 µM (inactive)	0.299 µM (active)
CC1(SCC(N)C(=O)O)CC(=O)NC1=O (stereo unspecified)	> 100 µM (inactive)	> 100 µM (inactive)	> 100 µM (inactive)	> 100 µM (inactive)	> 100 µM (inactive)	> 100 µM (inactive)	> 100 µM (inactive)	> 100 µM (inactive)	0.42 µM (active)	62.4 µM (inactive)	> 100 µM (inactive)	> 100 µM (inactive)	> 100 µM (inactive)	> 100 µM (inactive)	–	> 100 µM (inactive)
NC1=NC(=O)C(CC(=O)Nc2ccc([N+](=O)[O-])cc2[N+](=O)[O-])S1 (stereo unspecified)	> 100 µM (inactive)	> 100 µM (inactive)	> 100 µM (inactive)	> 100 µM (inactive)	> 100 µM (inactive)	> 100 µM (inactive)	> 100 µM (inactive)	> 100 µM (inactive)	–	> 100 µM (inactive)	> 100 µM (inactive)	> 100 µM (inactive)	> 100 µM (inactive)	> 100 µM (inactive)	> 100 µM (inactive)	–
COc1ccc2c(C(=O)O)cc3cc(OC)c(OC)cc3c2c1	–	> 100 µM (inactive)	> 100 µM (inactive)	> 100 µM (inactive)	–	> 100 µM (inactive)	> 100 µM (inactive)	> 100 µM (inactive)	–	> 100 µM (inactive)	> 100 µM (inactive)	> 100 µM (inactive)	> 100 µM (inactive)	> 100 µM (inactive)	> 100 µM (inactive)	> 100 µM (inactive)
COc1ccc2c(c1)[n+]([O-])c(C(N)=O)c(N)[n+]2[O-]	> 100 µM (inactive)	–	> 100 µM (inactive)	24.4 µM (inactive)	> 100 µM (inactive)	–	> 100 µM (inactive)	28.8 µM (inactive)	> 100 µM (inactive)	> 100 µM (inactive)	54.6 µM (inactive)	–	> 100 µM (inactive)	–	75.5 µM (inactive)	> 100 µM (inactive)
Cc1ccc(C(=O)O/N=C2/CCCCC2CN(C)C)cc1 (stereo unspecified)	> 100 µM (inactive)	> 100 µM (inactive)	> 100 µM (inactive)	> 100 µM (inactive)	> 100 µM (inactive)	> 100 µM (inactive)	> 100 µM (inactive)	> 100 µM (inactive)	> 100 µM (inactive)	> 100 µM (inactive)	> 100 µM (inactive)	> 100 µM (inactive)	> 100 µM (inactive)	> 10 µM (inactive)	> 100 µM (inactive)	> 100 µM (inactive)
COc1ccc(NC(=O)CC(=O)n2nc(-c3ccccc3)c(/N=N/c3ccccc3C(=O)O)c2-c2ccccc2)cc1	30.1 µM (inactive)	> 100 µM (inactive)	42.4 µM (inactive)	> 100 µM (inactive)	92.5 µM (inactive)	> 100 µM (inactive)	> 100 µM (inactive)	> 100 µM (inactive)	–	> 100 µM (inactive)	–	28.8 µM (inactive)	> 100 µM (inactive)	> 100 µM (inactive)	–	52.7 µM (inactive)
O=[N+]([O-])c1ccc(/C=C/c2ccc(/C=C/c3ccc([N+](=O)[O-])cc3[N+](=O)[O-])cc2)c([N+](=O)[O-])c1	> 100 µM (inactive)	–	> 100 µM (inactive)	–	> 100 µM (inactive)	> 100 µM (inactive)	> 100 µM (inactive)	> 100 µM (inactive)	> 100 µM (inactive)	> 100 µM (inactive)	> 100 µM (inactive)	> 100 µM (inactive)	–	–	> 100 µM (inactive)	> 100 µM (inactive)
O=C(CC1(O)C(=O)Nc2ccccc21)c1ccco1 (stereo unspecified)	> 100 µM (inactive)	> 100 µM (inactive)	> 100 µM (inactive)	> 100 µM (inactive)	> 100 µM (inactive)	–	> 100 µM (inactive)	> 100 µM (inactive)	> 100 µM (inactive)	> 100 µM (inactive)	> 100 µM (inactive)	> 100 µM (inactive)	> 100 µM (inactive)	> 100 µM (inactive)	> 100 µM (inactive)	> 100 µM (inactive)
